Assay results taken from ChEMBL document CHEMBL5154747, “Discovery of new carbonic anhydrase IX inhibitors as anticancer agents by toning the hydrophobic and hydrophilic rims of the active site to encounter the dual-tail approach” (Eur J Med Chem, 2022).
Activity calls are given as the source filed them. The rule behind the calls is not given here.

Key:
RXF 393 = test: Cytotoxicity against human RXF 393 cells assessed as inhibition of cell viability incubated for 72 hrs under hypoxia condition by MTT assay; format: functional, cell-based; details: RXF 393, 72 h
SK-MEL-5 [1] = test: Induction of apoptosis in human SK-MEL-5 cells assessed as late apoptotic cells at 10 uM incubated for 24 hrs by Annexin-V/FITC and PI staining based flow cytometry analysis (reference value: 0.26 %); format: functional
SK-MEL-5 [2] = test: Induction of apoptosis in human SK-MEL-5 cells assessed as caspase 3 activation incubated for 24 hrs by Western blotting analysis; format: functional, cell-based
HCC 2998 = test: Cytotoxicity against human HCC 2998 cells assessed as inhibition of cell viability incubated for 72 hrs under hypoxia condition by MTT assay; format: functional, cell-based; details: HCC 2998, 72 h
SK-MEL-5 [3] = test: Induction of cell cycle arrest in human SK-MEL-5 cells assessed as cell aggregates at 10 uM incubated for 24 hrs by FACSCalibur flow cytometry analysis (reference value: 1.79%); format: functional
SK-MEL-5 [4] = test: Induction of apoptosis in human SK-MEL-5 cells assessed as caspase 9 activation incubated for 24 hrs by Western blotting analysis; format: functional, cell-based
SK-MEL-5 [5] = test: Induction of cell cycle arrest in human SK-MEL-5 cells assessed as cell debris at 10 uM incubated for 24 hrs by FACSCalibur flow cytometry analysis (reference value: 1.38%); format: functional
SK-MEL-5 [6] = test: Induction of cell cycle arrest in human SK-MEL-5 cells assessed as accumulation of diploid cells at S phase at 10 uM incubated for 24 hrs by FACSCalibur flow cytometry analysis (reference value: 17.55%); format: functional
SK-MEL-5 [7] = test: Induction of apoptosis in human SK-MEL-5 cells assessed as necrotic cells at 10 uM incubated for 24 hrs by Annexin-V/FITC and PI staining based flow cytometry analysis (reference value: 1.56 %); format: functional
SK-MEL-5 [8] = test: Induction of cell cycle arrest in human SK-MEL-5 cells assessed as accumulation of diploid cells at G2/M phase at 10 uM incubated for 24 hrs by FACSCalibur flow cytometry analysis (reference value: 13.22%); format: functional
SK-MEL-5 [9] = test: Induction of apoptosis in human SK-MEL-5 cells assessed as early apoptotic cells at 10 uM incubated for 24 hrs by Annexin-V/FITC and PI staining based flow cytometry analysis (reference value: 0.61 %); format: functional
SK-MEL-5 [10] = test: Cytotoxicity against human SK-MEL-5 cells assessed as inhibition of cell viability incubated for 72 hrs under hypoxia condition by MTT assay; format: functional, cell-based; details: SK-MEL-5, 72 h
SK-MEL-5 [11] = test: Induction of cell cycle arrest in human SK-MEL-5 cells assessed as accumulation of diploid cells at G1 phase at 10 uM incubated for 24 hrs by FACSCalibur flow cytometry analysis (reference value: 69.23%); format: functional
SK-MEL-5 [12] = test: Induction of ROS generation in human SK-MEL-5 cells assessed as increase in intracellular ROS level incubated for 1 hrs by H2DCFDA probe based fluorometry analysis relative to control; format: functional
SK-MEL-5 [13] = test: Induction of cell cycle arrest in human SK-MEL-5 cells assessed as accumulation at pre G1 phase at 10 uM incubated for 24 hrs by FACSCalibur flow cytometry analysis (reference value: 2.43%); format: functional

SMILES: CN(C)c1ccc(/C=N/Nc2nc(Nc3ccccc3)nc(Nc3ccc(S(N)(=O)=O)cc3)n2)cc1
- IC50 (RXF 393): 7.21 µM

SMILES: NS(=O)(=O)c1ccc(Nc2nc(N/N=C/c3ccccn3)nc(Nc3ccccc3)n2)cc1
- IC50 (RXF 393): 3.11 µM
- Activity (SK-MEL-5 [1]): 24.97%
- Activity (SK-MEL-5 [2]): Active
- IC50 (HCC 2998): 1.93 µM
- Activity (SK-MEL-5 [3]): 1.85%
- Activity (SK-MEL-5 [4]): Active
- Activity (SK-MEL-5 [5]): 1.42%
- Activity (SK-MEL-5 [6]): 32.41%
- Activity (SK-MEL-5 [7]): 7.99%
- Activity (SK-MEL-5 [8]): 8.81%
- Activity (SK-MEL-5 [9]): 4.28%
- IC50 (SK-MEL-5 [10]): 8.33 µM
- Activity (SK-MEL-5 [11]): 58.78%
- Activity (SK-MEL-5 [12]): 23%
- Activity (SK-MEL-5 [13]): 37.24%
